In patent publication US20110281807A1, “PLANT DISEASE CONTROL AGENT COMPRISING D-TAGATOSE AS ACTIVE INGREDIENT, AND PLANT DISEASE CONTROL METHOD” (NATIONAL UNIVERSITY CORPORATION KAGAWA UNIVERSITY, priority 2008, published 2011):
Values joined by “and” are separate entries in the source; they are usually repeats but may differ in a detail not shown here. Equal entries are not always repeated. Where two headings read alike, the source gives them in different places.

Experiments:
[1] = test system: Phytophthora infestans; assay type: in vivo; conditions: for Preventive value: inoculated 3 days after spraying
[2] = test system: Phytophthora infestans; assay: whole plant or invertebrate; assay type: in vivo; conditions: Phytophthora infestans, in Solanum lycopersicum, 168 h, read-out: Preventive value
[3] = test system: Pyricularia oryze; assay: whole plant or invertebrate; assay type: in vivo; conditions: Pyricularia, in Oryza sativa, 168 h, read-out: Preventive value
[4] = test system: Puccinia recondita; assay: wheat brown rust, field trial
Procedure: Test plants (variety: Nourin 61 gou) were sowed and grown until heading stage. D-Tagatose was diluted to 5% with distilled water and sprayed thoroughly on the plants two times every 8 days. Three days after the first spraying of the dilution, wheat leaves inoculated with wheat fusarium blight (Puccinia recondita) were kept in the test plants. The disease severity of the test plants was observed 21 days after last spraying and the effectiveness of test sample was judged. Tests were carried out in duplicate. One plot of each test was 5 m^2. The disease severity of the test plants was judged in accordance with the following criteria. The preventive value was calculated from the degree of disease severity.

[5] = test system: Plasmopara viticola; assay: vine downy mildew, field test; conditions: for D.D.S (Degree of disease severity), Av / P.V. (Preventive value), Av / n/N × 100, Av: average of plots
Procedure: Test plants (variety: kyoho) were grown until approximately 10 leaves. […] After the first spraying of the dilution, grape leaves were infected by spraying a sporangium suspension of Plasmopara viticola containing 1×10^3/ml. The disease severity of the test plants was observed 7 days after last spraying, and the effectiveness of test sample was judged. Tests were carried out in triplicate using half of the test plant per each test. The disease severity of the test plants was judged in accordance with the following criteria. The preventive value was calculated from the degree of disease severity.
(§1) 0 (No lesion) 1 (Lesion area was not more than 5% of the leaf area) 2 ((Lesion area was 5%-25% of the leaf area) 3 (Lesion area was 25%-50% of the leaf area) 4 (Lesion area was not less than 50% of the leaf area)

[6] = test system: Sphaerotheca fuliginea; assay: cucumber powdery mildew, field test; conditions: for D.D.S (Degree of disease severity), Av / P.V. (Preventive value), Av / n/N × 100, Av: average of plots
Procedure: Test plants (cucumber, variety: Ancor) were grown until approximately 10 leaves. […] After the first spraying of the dilution, the test plants were inoculated with condia of suspension of Sphaerotheca fuliginea. The disease severity of the test plants was observed 7 days after the last spraying, and the effectiveness of test sample was judged. Tests were carried out in triplicate using 8 plants per each test. The disease severity of the test plants was judged in accordance with the following criteria. The preventive value was calculated from the degree of disease severity.
as §1

[7] = test system: Pythium glaminicola; conditions: for Preventive value: 10 ml soil drench, from percentage of onset area after 2 weeks
Procedure: Four germinated rice seeds (variety: Koshihikari) were sowed in a pot (5×5 cm), which contains infected soil with Pythium glaminicola (mycelium 100 g/1 L soil). The pot was drenched with 10 ml of D-tagatose dilution and the seeds were covered with soil. After 2 weeks, the disease severity of the test plants per rice seedling in 25 cm^2 was observed and the effectiveness of test sample was judged. Tests were carried out in duplicate and the preventive value was calculated from percentage of onset area.

[8] = test system: Pseudoperonospora cubensis; conditions: for Preventive value: 5 ml soil drench, inoculated 5 days after drenching
Procedure: Test plants (cucumber, variety: Sagami hanpaku) were seeded and grown until the one true leaf stage. D-Tagatose was diluted to 5% and 1% with distilled water and then 5 ml of the dilution was drenched into the soil of the pot. Five days after drenching, a sporangium suspension of Pseudoperonospora cubensis containing 1×10^3/ml were noculated by spraying on the test plants and then put them for 16 hours in an inoculation chamber (20° C. to 23° C.) to promote disease. Seven days after inoculation the disease severity of the test plants was observed and the effectiveness of test sample was judged. Tests were carried out using two plants for each test set and the disease severity of the test plants was judged. The preventive value was calculated from the degree of disease severity as in Example 1.

[9] = test system: Peronospora parasitica; assay: cabbage downy mildew, pot test: preventive effect; conditions: for Preventive value: inoculated 3 days after spraying
Procedure: Test plants (cabbage, variety: Shikidori) were seeded and grown until 4 leaves stage. […] Three days after spraying, a suspension containing condia of cucumber downy mildew (Peronospora parasitica) was inoculated by spraying on test plants. Seven days after inoculation the disease severity of the test plants was observed and the effectiveness of test sample was judged. Tests were carried out using two plants for each test set and the disease severity of test plants was judged in accordance with the following criteria. The preventive value was calculated from the degree of disease severity as in Example 1.

[10] = test system: Sphaerotheca fuligine; assay: cucumber powdery mildew, pot test: preventive effect; conditions: for Preventive value: inoculated 3 days after spraying
Procedure: Test plants (cucumber, variety: Sagami-hanpaku) were seeded and grown until the one true leaf stage. D-tagatose was diluted to 5% and 1% with distilled water and then 10 ml of the dilution was sprayed on the test plant. Three days after spraying, a condia suspension of Sphaerotheca fuligine was inoculated by spraying on test plants. Seven days after inoculation the disease severity of the test plants was observed and the effectiveness of test sample was judged. Tests were carried out using two plants for each test set and the disease severity of the test plants was judged in accordance with the following criteria.

[11] = test system: Pythium aphanidermatum; assay: cucumber damping-off, pot test: soil drench of D-tagatose combined with fungicides; conditions: Pythium aphanidermatum, in Cucumis sativus, soil, 336 h, read-out: Preventive value
[12] = test system: Puccinia recondita; conditions: Puccinia recondita, in Triticum aestivum, 168 h, read-out: Preventive value
Procedure: Test plants (variety: Nourin 61 gou) were sowed and grown until two leaves stage.
D-Tagatose and fungicide were diluted to 10000 ppm and the concentration listed in table 19, respectively, with distilled water, and 10 ml of the dilution was sprayed thoroughly on the plants. Three days after the spraying of the dilution, the plants were inoculated with Puccinia recondita containing 1×10^3/ml and then put for 16 hours in an inoculation chamber (20° C. to 23° C.) to promote disease. Seven days after inoculation the disease severity of the test plants was observed and the effectiveness of test sample was judged.

[13] = test system: Botrytis cinerea; conditions: Botrytis cinerea, in Solanum lycopersicum, 168 h, read-out: Preventive value
Procedure: Test plants (tomato, variety: Ogata-fukujyu) were seeded and grown until the three leaf stage. D-Tagatose and fungicide were diluted to 10000 ppm and the concentrations liste in table 23, respectively, with distilled water and 10 ml of the dilution was sprayed on the plants. Three days after spraying the solution, condia suspension of Botrytis cinerea were inoculated by spraying on test plants and then put for 16 hours in an inoculation chamber (20° C. to 23° C.) to promote disease. Seven days after inoculation, the disease severity of the test plants was observed and the effectiveness of test sample was judged.

[14] = test system: Plasmopara viticola; conditions: Plasmopara viticola, 168 h, read-out: Preventive value
Procedure: Test plants (variety: Neo Muscat) were seeded and grown until three leaves. D-Tagatose was diluted to 5000 ppm and the fungicides were diluted to the concentrations listed in table 16, with distilled water, and 10 ml of the dilution was sprayed on the plants. Three days after the spraying of the dilution, the plants were infected by spraying a sporangium suspension of Plasmopara viticola containing 1×10^3/ml and then put for 16 hours in an inoculation chamber (20° C. to 23° C.) to promote disease. The disease severity of the test plants was observed 7 days after inoculation, and the effectiveness of test sample was judged.

[15] = test system: Pseudoperonospora cubensis; conditions: Pseudoperonospora cubensis, in Cucumis sativus, 168 h, read-out: Preventive value
Procedure: Test plants (cucumber, variety: Sagami hanpaku) were seeded and grown until the one true leaf stage. D-Tagatose was diluted to 5000 ppm and the fungicides were diluted to the concentrations listed in table 14, with distilled water. And then 10 ml of the dilution was sprayed on the test plant. Three days after spraying of the solution, a sporangium suspension of Pseudoperonospora cubensis containing 1×10^3/ml were inoculated by spraying on test plants and then put for 16 hours in an inoculation chamber (20° C. to 23° C.) to promote disease. Seven days after inoculation the disease severity of the test plants was observed and the effectiveness of the test sample was judged. Tests were carried out using two plants for each test set and the disease severity of the test plants was judged in accordance with the following criteria. The preventive value was calculated from the degree of disease severity.
0 (No lesion) 1 (Lesion area was not more than 40%) 2 ((Lesion area was 40%-80%) 3 (Lesion area was not less than 80%)
Preventive value=100{1−(n/N)} N=disease severity of untreated leaf, n=disease severity of the test leaf Synergistic effect was determined by Colby's equation.

[16] = test system: Erysiphe graminis f.sp. hordei; conditions: Blumeria graminis, in Hordeum vulgare, 168 h, read-out: Preventive value
Procedure: Test plants (barley, variety: Akashinriki) were seeded and grown until the one leaf stage. D-tagatose and fungicide were diluted to 5000 ppm and the concentrations listed in table 21, respectively, with distilled water and 10 ml of the dilution was sprayed thoroughly on the plants. Three days after spraying, a condia suspension of Erysiphe graminis f.sp. hordei was inoculated by spraying on test plants. 7 days after inoculation the disease severity of the test plants was observed and the effectiveness of test sample was judged.

[17] = test system: Sphaerotheca fuliginea; conditions: Podosphaera fuliginea, in Cucumis sativus, 168 h, read-out: Preventive value
[18] = test system: Pseudoperonospora cubensis; conditions: alone
Procedure: Test plants (cucumber, variety: Sagami hanpaku) were seeded and grown until the one true leaf stage. D-tagatose alone was diluted to 5%, 1%, 0.5% and 0.1%, and the combination of D-tagatose and other saccharide were diluted to be 0.5% and 0.5% solution respectively with distilled water, and then 10 ml of the dilution was sprayed on the test plant. Three days after spraying of the solution, a sporangium suspension of Pseudoperonospora cubensis containing 1×10^3/ml were inoculated by spraying on test plants and then put them for 16 hours in an inoculation chamber (20° C. to 23° C.) to promote disease. Seven days after inoculation the disease severity of the test plants was observed and the effectiveness of test sample was judged. Tests were carried out using two plants for each test set and the disease severity of the test plants was judged in accordance with the following criteria. The preventive value was calculated from the degree of disease severity as in example 1.
Synergistic effect was determined by the Colby's equation below.
X is the observed effect, in percentage, of the first active ingredient and, and Y is the observed effect, in percentage, of the second active ingredient. E is the effect, in percentage, of the mixture expected from additive contribution of the individual components.

[19] = 50000 ppm, per plot (1, 2), 100 leaves
[20] = 10000 ppm, per plot (1-3), 50 leaves
[21] = 50000 ppm, per plot (1-3), 50 leaves
[22] = 10000 ppm, per plot (1, 2), 50 leaves
[23] = 50000 ppm, per plot (1, 2), 50 leaves

O=C(CO)[C@@H](O)[C@@H](O)[C@H](O)CO [D-Tagatose, D-tagatose]
Preventive value ([1]; 50000 ppm spray): 28.3 | Preventive value ([1]; 100000 ppm spray): 58.3 | effectiveness in words ([1]; foliar spray): effective enough | pest or weed control at 5000 ppm [2]: 0% | pest or weed control at 10000 ppm [2]: 40% | pest or weed control at 10000 ppm [3]: 0% | pest or weed control at 50000 ppm [3]: 50% | D.D.S (Degree of disease severity), Av ([4]; 50000 ppm, average of plots): 6.1 | D.D.S (Degree of disease severity) ([4]; 50000 ppm, per plot (1, 2)): 4.7 and 7.5 | Leaves number(n) of disease severity 0 [4, 19]: 76 and 68 | Leaves number(n) of disease severity 1 [4, 19]: 22 and 25 | Leaves number(n) of disease severity 4 [4, 19]: 0 | Leaves number(n) of disease severity 5 [4, 19]: 0 | Leaves number(n) of disease severity 6 [4, 19]: 0 | P.V. (Preventive value), Av ([4]; 50000 ppm, sprayed two times every 8 days, rated 21 days after last spraying): 92.5 | effectiveness in words ([4]; field trial): effective enough | D.D.S (Degree of disease severity), Av ([5]; 10000 ppm): 12.75 | P.V. (Preventive value), Av ([5]; 10000 ppm): 71.7 | n/N × 100, Av ([5]; 10000 ppm): 31.0 | D.D.S (Degree of disease severity) ([5]; 10000 ppm, per plot (1-3)): 14.50 and 18.50 and 11.00 | P.V. (Preventive value) ([5]; 10000 ppm, per plot (1-3)): 72.0 and 64.3 and 78.7 | n/N × 100 ([5]; 10000 ppm, per plot (1-3)): 36.0 and 32.0 and 26.0 | Disease severity 0: number of leaves [5, 20]: 32 and 34 and 37 | Disease severity 1: number of leaves [5, 20]: 8 and 4 | D.D.S (Degree of disease severity), Av ([5]; 50000 ppm): 0.00 | P.V. (Preventive value), Av ([5]; 50000 ppm): 99.4 | n/N × 100, Av ([5]; 50000 ppm): 0.0 | P.V. (Preventive value) ([5]; 50000 ppm, per plot (1-3)): 100.0 and 93.1 | Disease severity 0: number of leaves [5, 21]: 50 and 48 | Disease severity 2: number of leaves [5, 21]: 0 | Disease severity 3: number of leaves [5, 21]: 0 | Disease severity 4: number of leaves [5, 21]: 0 | effectiveness in words ([5]; field test): effective enough | D.D.S (Degree of disease severity), Av ([6]; 10000 ppm): 5.75 | P.V. (Preventive value), Av ([6]; 10000 ppm): 94.0 | n/N × 100, Av ([6]; 10000 ppm): 15.0 | D.D.S (Degree of disease severity) ([6]; 10000 ppm, per plot (1, 2)): 8.00 | P.V. (Preventive value) ([6]; 10000 ppm, per plot (1, 2)): 96.4 and 91.7 | Disease severity 0: number of leaves [6, 22]: 46 and 39 | Disease severity 3: number of leaves [6, 22]: 1 | Disease severity 4: number of leaves [6, 22]: 0 | D.D.S (Degree of disease severity), Av ([6]; 50000 ppm): 1.25 | P.V. (Preventive value), Av ([6]; 50000 ppm): 98.7 | n/N × 100, Av ([6]; 50000 ppm): 5.0 | D.D.S (Degree of disease severity) ([6]; 50000 ppm, per plot (1, 2)): 1.00 and 1.50 | P.V. (Preventive value) ([6]; 50000 ppm, per plot (1, 2)): 99.0 and 98.4 | n/N × 100 ([6]; 50000 ppm, per plot (1, 2)): 4.0 and 6.0 | Disease severity 0: number of leaves [6, 23]: 48 and 47 | Disease severity 1: number of leaves [6, 23]: 2 and 3 | Disease severity 2: number of leaves [6, 23]: 0 | Disease severity 3: number of leaves [6, 23]: 0 | Disease severity 4: number of leaves [6, 23]: 0 | effectiveness in words ([6]; field test): effective enough | Preventive value ([7]; 10000 ppm): 77.3 | Preventive value ([7]; 50000 ppm): 96.2 | effectiveness in words ([7]; soil drench): effective enough | Preventive value ([8]; 10000 ppm): 95.0 | Preventive value ([8]; 10000 ppm, listed as D-tagatose): 95 | Preventive value ([8]; 50000 ppm): 100.0 | Preventive value ([8]; 50000 ppm, listed as D-tagatose): 100 | effectiveness in words ([8]; drench treatment): effective enough | Preventive value ([9]; 10000 ppm spray): 90.1 | Preventive value ([9]; 50000 ppm spray): 95.1 | effectiveness in words ([9]; foliar spray): effective enough | Preventive value ([10]; 10000 ppm spray): 20.0 | Preventive value ([10]; 50000 ppm spray): 87.5 | effectiveness in words ([10]; foliar spray): effective enough | pest or weed control at 5000 ppm [11]: 33% | pest or weed control at 10000 ppm [11]: 83% | pest or weed control at 10000 ppm [12]: 17% | pest or weed control at 50000 ppm [12]: 50% | pest or weed control at 10000 ppm [13]: 0% | pest or weed control at 50000 ppm [13]: 17% | pest or weed control at 5000 ppm [14]: 17% | pest or weed control at 10000 ppm [14]: 67% | pest or weed control at 5000 ppm [15]: 40% | pest or weed control at 10000 ppm [15]: 83% | pest or weed control at 5000 ppm [16]: 50% | pest or weed control at 10000 ppm [16]: 73% | pest or weed control at 5000 ppm [17]: 40% | pest or weed control at 10000 ppm [17]: 93% | Preventive value ([18]; 1000 ppm): 0.0 | Preventive value ([18]; 5000 ppm): 8.3 | Preventive value ([18]; 10000 ppm): 98.3 | Preventive value ([18]; 50000 ppm): 100.0
